Laboratory results from patent publication US10596296B2, “Heparan sulphates” (Agency for Science, Technology and Research, priority 2014, dated 2020).

How the values were obtained:
[1] = system: TGF-β1 signaling (pSMAD2, pSMAD3) in hMSCs; experiment: Western blotting of pSMAD2/pSMAD3 in hMSCs treated with TGF-β1 and GAG; type: cell-based, human
Experimental: Primary hMSCs (Lonza) were isolated from the bone marrow mononuclear cells of a young healthy adult human donor by plastic adherence and characterized as previously described (30,31). The adherent cells were maintained in a basal media consisting of DMEM-low glucose (1000 mg/l, DMEM-LG) supplemented with 10% fetal calf serum, 100 U/ml penicillin, 100 μg/ml streptomycin and 2 mM L-glutamine, and cultured under standard conditions at 37° C. and 5% CO2 in a humidified atmosphere. Media replacement was every three days. Cells were detached with 0.125% trypsin/Versene (pH 7.0) upon reaching 75-80% confluence, and re-plated at a density of 3,000 cells/cm^2 under the same culture conditions. All experiments were carried out with cells at passage 5.
Human MSCs were cultured in 6-well plates in basal media for 24 h at a density of 10,000 cells/cm^2. TGF-β1 treatments were then prepared at either 1 ng/ml or 5 ng/ml alone or in the presence of either 10 μg/ml or 40 μg/ml of full length heparin, or 1 ng/ml of TGF-β1 with 10 μg/ml size-fractionated or selectively desulfated heparin, HS^PM, HS16+ or HS16−, and incubated at room temperature for 10 min before being added to the cells. Latent TGF-β1 (LTGF-β1) treatments were similarly prepared at 3.3 ng/ml alone or with 10 μg/ml of the various GAGs described above. For inhibitor studies, the cells were pre-treated for 30 min with 10 μM SB431542 (Sigma-Aldrich) or DMSO before treatment with TGF-β1. […] Samples were then immunoblotted with antibodies against SMAD2/3 (#3102, Cell Signaling), phosphorylated SMAD2 (pSMAD2, #3108, Cell Signaling), phosphorylated SMAD3 (pSMAD3, #9520, Cell Signaling) and actin (MAB1501R, Millipore). Densitometry was carried out using Quantity One software (version 4.6.6, Bio-Rad).

[2] = system: chondrogenic differentiation of hMSCs; experiment: qPCR of chondrogenic micromass pellets (Example 2); type: cell-based, human; details: for SOX9 expression / COMP expression: day 3
Experimental: Total RNA was isolated from chondrogenic micromass pellets using TRIZOL reagent (Life Technologies, CA, USA) according to the manufacturer's protocol. Reverse transcription was carried out on 1 μg RNA using the SuperScript® VILO™ cDNA Synthesis Kit (Life Technologies) following the manufacturer's instructions, with the incubation at 42° C. being carried out for 2 h instead of 1 h. Each qPCR contained 40 ng cDNA, 1 μL TaqMan® primer-probe mix per gene, and 10 μL Taqman® Fast Universal PCR Master Mix (Life Technologies) in a final volume of 20 μL. Thermal cycling conditions were 95° C. for 20 s, followed by 45 cycles of 95° C. for 1 s and 60° C. for 20 s. Each qPCR was run in duplicate and gene expression was normalised to HPRT1 expression to obtain the ΔCt value. The average value of biological triplicates was taken. Chondrogenic micromass pellets cultured in media without GAG or TGF-β1 were used as controls (ΔΔCt). Relative expression levels for each primer set were expressed as fold changes by the 2-ΔΔCt method [Livak, K. J. and T. D. Schmittgen, Analysis of Relative Gene Expression Data Using Real-Time Quantitative PCR and the 2-ΔΔCT Method. Methods, 2001. 25(4): p. 402-408]. The following TaqMan® primer-probe assays (Life technologies) were used:
In order to assess the effects of HS16+ve on the chondrogenic differentiation of hMSCs in vitro, it was first necessary to establish the effects of TGF-β1 alone. Chondrogenic differentiation was carried out using a modified micromass culture system. [Zhang, L., et al., Chondrogenic differentiation of human mesenchymal stem cells: a comparison between micromass and pellet culture systems. Biotechnol Lett, 2010. 32(9): p. 1339-1346.]. Briefly, passage 4 hMSCs were harvested and resuspended in chemically defined chondrogenic media (PT-3003, Lonza, MD, USA) at 2×10^7 cells/mL. Droplets of 12.5 μL were then seeded into the middle of each well in a 24-well plate and left to adhere at 37° C. for 2 h, after which, 500 μL of chondrogenic media supplemented with either 1 or 10 ng/mL of TGF-β1 (100-210, PeproTech) alone or with either 5 or 10 μg/mL of heparin (Sigma-Aldrich), porcine mucosal HS (HSPM) (Celsus laboratories), HS16+ve or HS16-ve was added to each well. The cell droplets coalesced into spherical masses after 24 h. Media was changed every 3 days and the micromasses harvested on days 3, 7, 14 and 21.
Next, hMSCs were differentiated for 21 days in the presence of 1 ng/mL TGF-β1 alone (1 TGF-β1) or in combination with 10 μg/mL of GAG (heparin, HSPM, HS16+ve or HS16−ve) or with 10 ng/mL TGF-β1 (10 TGF-β1) as a positive control.

LTGF-β1 = LTGF-β1 (Homo sapiens, UniProt P01137); details: reference (56); cited from earlier work
LTGF-β1, sequence (P01137 279-390 limits assumed): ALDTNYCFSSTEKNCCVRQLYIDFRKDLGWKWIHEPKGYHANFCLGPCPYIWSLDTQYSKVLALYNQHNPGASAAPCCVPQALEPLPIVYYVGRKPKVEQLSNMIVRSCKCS
LTGF-β1, sequence (P01137 30-278 limits assumed): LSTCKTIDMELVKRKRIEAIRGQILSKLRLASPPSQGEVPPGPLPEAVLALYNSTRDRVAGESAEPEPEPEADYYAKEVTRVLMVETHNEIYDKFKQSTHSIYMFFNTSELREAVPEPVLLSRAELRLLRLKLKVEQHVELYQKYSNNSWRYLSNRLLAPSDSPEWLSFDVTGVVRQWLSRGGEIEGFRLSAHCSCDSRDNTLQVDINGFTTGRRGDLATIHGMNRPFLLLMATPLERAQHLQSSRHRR

[3] = 6 h post-treatment, heparin and TGF-β1
[4] = 10 μg/mL heparin with 10 ng/mL TGF-β1

## heparin
[1]; 1 h post treatment, with TGF-β1
  pSMAD2 and pSMAD3 levels: saturated
[1]; [3]
  pSMAD2 level relative to equivalent dose of TGF-β1 without heparin: ~1.6 fold
  pSMAD3 level relative to equivalent dose of TGF-β1 without heparin: ~1.35 fold
[1]; 24 h, heparin and TGF-β1
  pSMAD levels relative to TGF-β1 alone: continued to be greater
[1]; TGF-β1 1 ng/mL with 40 μg/mL heparin, 6 h
  pSMAD2 and pSMAD3 signal: unable to elicit the same effect
[1]; TGF-β1 1 ng/ml pre-incubated with 10 μg/ml GAG, 6 h
  pSMAD2 and pSMAD3 levels: maintained a stronger pSMAD2 and pSMAD3 signal
[1]; TGF-β1 5 ng/mL with 10 or 40 μg/mL heparin, 6 h
  pSMAD signal: neither dose of heparin was able enhance the pSMAD signal beyond that obtained from the growth factor alone
[1]; heparin alone, no TGF-β1
  levels of pSMAD2 and pSMAD3: No discernible levels
[2]; 21 days, 1 ng/mL TGF-β1 with 10 μg/mL GAG
  COMP expression increase relative to 1 ng/mL TGF-β1 alone: ~2.5 fold
[2]; 5 μg/mL heparin, regardless of the amount of TGF-β1
  SOX9 expression: did not significantly alter
[2]; 10 μg/mL heparin on its own
  SOX9 expression: did not affect SOX9 expression
[2]; 10 μg/mL heparin with 1 ng/mL TGF-β1
  SOX9 expression: increase the expression of SOX9
[2]; [4]
  COMP expression: reduced COMP expression levels
  SOX9 expression: unable to bring about any change in SOX9 expression
[2]; 5 or 10 μg/mL heparin on their own
  COMP expression: slightly reduce
[2]; either dose of heparin with 10 ng/mL TGF-β1
  COMP expression: unable to elicit a further increase in COMP expression
[2]; heparin with 1 ng/mL TGF-β1
  COMP expression: increase COMP expression levels in a dose dependent manner
[2]; day 21, 1 ng/mL TGF-β1 with 10 μg/mL GAG
  Aggrecan expression: similar
LTGF-β1
  effect on activation of LTGF-β1: inhibit the activation of LTGF-β1
